Consider 3 molecules from BindingDB's records for patent US11680056 (Xinthera, 2023).

“And” between values parts separate entries of the source, which are not always exact repeats. Equal entries are not always repeated.

The experiment deals with T1, MAP kinase-activated protein kinase 2 [46-400] (Homo sapiens, UniProt P49137).
T1 construct: 46-400
T1 sequence (P49137 46-400): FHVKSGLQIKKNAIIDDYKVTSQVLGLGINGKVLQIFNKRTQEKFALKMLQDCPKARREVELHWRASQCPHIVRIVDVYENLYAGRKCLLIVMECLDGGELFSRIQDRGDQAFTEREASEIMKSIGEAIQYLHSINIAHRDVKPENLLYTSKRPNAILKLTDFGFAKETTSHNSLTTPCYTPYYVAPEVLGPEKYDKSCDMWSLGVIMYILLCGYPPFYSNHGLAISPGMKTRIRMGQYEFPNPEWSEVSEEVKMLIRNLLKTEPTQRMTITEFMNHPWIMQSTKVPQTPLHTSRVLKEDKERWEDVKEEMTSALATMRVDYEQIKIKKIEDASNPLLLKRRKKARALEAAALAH
As to the kind of experiment: Biochemical Assay. The protocol: This study evaluates the inhibitory potency of invention compound on p38/MK2 pathway vs p38/PRAK pathway. More specially the compound concentration (IC50) was determined that inhibited half of the maximal activation of MK2 or PRAK by p38. MK2 activation study was set up without or with a serial of 10-point 1:3 dilution of invention compound at top dose of […], and PRAK activation study was set up without or with a serial of 10-point 1:3 dilution of invention compound at top dose of 300 μM. The MK2 and PRAK activity were determined by the phosphorylation level of HSP27 peptide conjugated with FITC. […] After 2 h incubation of the reaction mixture with various concentration of invention compound (200 nL), 60 μL 1×IMAP solution Mixture (Molecular Devices, Cat R8127) was added to the reaction mixture and incubated for another half hour. The signal was then read by Synergy Neo2 Multi-Mode Microplate Reader with filter setting (Ex/Em=485 nm/FITC FP-P pol 528 nm & FITC FP-S pol 528 nm). The signal was then normalized to vehicle control and fitted in Xfit to generate IC50. The selectivity of MK2 over PRAK was calculated by the formular Selectivity=IC50 of PRAK/IC50 of MK2.
A word on the IC50: it is the concentration at which inhibition is half-maximal. Take `Cc1cnc(-n2nc(C(C)(C)O)cc2C2CC2)cc1-n1c(C)cc(OCc2ncc(F)cc2F)c(Cl)c1=O` [US11680056, Example 20A]: the IC50 is 2000 nM and > 10000 nM.
On to `Cc1cnnc(COc2cc(C)n(-c3cc(-c4ccnc(C(C)(C)O)n4)ncc3C)c(=O)c2Cl)c1` [US11680056, Example 28A], for which the half-inhibitory concentration (IC50) is more than 10000 nM.
Turning to `Cc1nn(-c2ccnc(C(C)(C)O)n2)cc1-n1c(C)cc(OCc2ncc(F)cc2F)c(Cl)c1=O` [US11680056, Example 30], the concentration for half-maximal inhibition (IC50) was 631 nM.
